Reference: patent publication US7138361B2, “Herbicidal heterocycles” (E. I. du Pont de Nemours and Company, priority 2000, dated 2006)

Tests used:
Format in all cases: in vivo
[1] = test system: Nightshade; test: Test C preemergence
[2] = test system: Sunflower; test: Test C preemergence; details: Rate 125 g/ha; scale 0 to 100, 0 no effect, 100 complete control
[3] = test system: Surinam grass (Brachiaria decumbens); test: Test C preemergence
Procedure, shortened: (§1)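 Plants held in greenhouse for 12–14 days post-application are scored by eye against controls on a 0–100 control scale. Application timing: preemergence on sown seed, or postemergence on 2–18 cm plants.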

[4] = test system: bermudagrass (Cynodon dactylon); test: Test C preemergence
Procedure, shortened: as §1

[5] = test system: cocklebur (Xanthium strumarium); test: Test C preemergence
Procedure, shortened: as §1

[6] = test system: common ragweed (Ambrosia elatior); test: Test C preemergence
Procedure, shortened: as §1

[7] = test system: corn (Zea mays); test: Test C preemergence
Procedure, shortened: as §1

[8] = test system: crabgrass (Digitaria sanguinalis); test: Test C preemergence
Procedure, shortened: as §1

[9] = test system: giant foxtail (Setaria faberii); test: Test C preemergence
Procedure, shortened: as §1

[10] = test system: goosegrass (Eleusine indica); test: Test C preemergence
Procedure, shortened: as §1

[11] = test system: johnsongrass (Sorghum halepense); test: Test C preemergence
Procedure, shortened: as §1

[12] = test system: kochia (Kochia scoparia); test: Test C preemergence
Procedure, shortened: as §1

[13] = test system: lambsquarters (Chenopodium album); test: Test C preemergence
Procedure, shortened: as §1

[14] = test system: morningglory (Ipomoea hederacea); test: Test C preemergence
Procedure, shortened: as §1

[15] = test system: pigweed (Amaranthus retroflexus); test: Test C preemergence
Procedure, shortened: as §1

[16] = test system: soybean (Glycine max); test: Test C preemergence
Procedure, shortened: as §1

[17] = test system: velvetleaf (Abutilon theophrasti); test: Test C preemergence
Procedure, shortened: as §1

[18] = test system: woolly cupgrass (Eriochloa villosa); test: Test C preemergence
Procedure, shortened: as §1

[19] = test system: yellow nutsedge (Cyperus esculentus); test: Test C preemergence
Procedure, shortened: as §1

[20] = test system: barnyardgrass (Echinochloa crus-galli); test: Test C flooded paddy test; details: for Barnyardgrass plant response rating: Flooded Paddy, scale 0 to 100, 0 no effect, 100 complete control; for Plant response rating, Barnyardgrass: flooded paddy test, scale 0 to 100 (0 no effect, 100 complete control)
Procedure, shortened: (§2)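 2-leaf-stage plants, flooded paddy; treated; greenhouse 12–14 days; compared with controls by eye; rated 0–100 (0 none, 100 complete control).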

[21] = test system: duck salad (Heteranthera limosa); test: Test C flooded paddy test; details: for Ducksalad plant response rating: Flooded Paddy, scale 0 to 100, 0 no effect, 100 complete control; for Plant response rating, Ducksalad: flooded paddy test, scale 0 to 100 (0 no effect, 100 complete control)
Procedure, shortened: as §2

[22] = test system: smallflower flatsedge (Cyperus difformis); test: Test C flooded paddy test; details: for Flatsedge plant response rating: Flooded Paddy, scale 0 to 100, 0 no effect, 100 complete control; for Plant response rating, Flatsedge: flooded paddy test, scale 0 to 100 (0 no effect, 100 complete control)
Procedure, shortened: as §2

[23] = Rate 125 g/ha, scale 0 to 100, 0 no effect, 100 complete control
[24] = Rate 250 g/ha, scale 0 to 100, 0 no effect, 100 complete control
[25] = preemergence, Rate 31 g/ha, scale 0 to 100
[26] = preemergence, Rate 62 g/ha, scale 0 to 100
[27] = preemergence, Rate 250 g/ha, scale 0 to 100, 0 no effect, 100 complete control
[28] = preemergence, Rate 500 g/ha, visual evaluation after 12 to 14 days

CC(C)OC(=O)c1cccc(N2CCC(n3ccc(C(C)(C)C)n3)C2=O)c1 (stereo not shown) [Compound 124]
Plant response rating, Nightshade ([1]; Rate 31 g/ha, scale 0 to 100): 0 | Plant response rating, Nightshade ([1]; Rate 62 g/ha, scale 0 to 100): 0 | Plant response rating, Nightshade [1, 23]: 20 | Plant response rating, Nightshade [1, 24]: 100 | Plant response rating, Sunflower [2]: 0 | Plant response rating, Surinam grass [3, 23]: 0 | Plant response rating, Surinam grass [3, 25]: 0 | Plant response rating, Surinam grass [3, 26]: 0 | Plant response rating, Surinam grass [3, 27]: 10 | Plant response rating, Bermudagrass [4, 23]: 80 | Plant response rating, Bermudagrass [4, 25]: 0 | Plant response rating, Bermudagrass [4, 26]: 60 | Plant response rating, Bermudagrass [4, 27]: 100 | Plant response rating, Cocklebur [5, 23]: 0 | Plant response rating, Cocklebur [5, 25]: 0 | Plant response rating, Cocklebur [5, 26]: 0 | Plant response rating, Cocklebur [5, 27]: 0 | Plant response rating, Ragweed, Common [6, 23]: 0 | Plant response rating, Ragweed, Common [6, 25]: 0 | Plant response rating, Ragweed, Common [6, 26]: 0 | Plant response rating, Ragweed, Common [6, 27]: 0 | Plant response rating, Corn [7, 23]: 0 | Plant response rating, Corn [7, 25]: 0 | Plant response rating, Corn [7, 26]: 0 | Plant response rating, Corn [7, 27]: 0 | Plant response rating, Crabgrass [8, 23]: 100 | Plant response rating, Crabgrass [8, 25]: 80 | Plant response rating, Crabgrass [8, 26]: 90 | Plant response rating, Crabgrass [8, 27]: 100 | Plant response rating, Foxtail, Giant [9, 23]: 20 | Plant response rating, Foxtail, Giant [9, 25]: 0 | Plant response rating, Foxtail, Giant [9, 26]: 0 | Plant response rating, Foxtail, Giant [9, 27]: 85 | Plant response rating, Goosegrass [10, 23]: 40 | Plant response rating, Goosegrass [10, 25]: 0 | Plant response rating, Goosegrass [10, 26]: 0 | Plant response rating, Goosegrass [10, 27]: 60 | Plant response rating, Johnsongrass [11, 23]: 20 | Plant response rating, Johnsongrass [11, 25]: 0 | Plant response rating, Johnsongrass [11, 26]: 15 | Plant response rating, Johnsongrass [11, 27]: 30 | Plant response rating, Kochia [12, 23]: 60 | Plant response rating, Kochia [12, 25]: 0 | Plant response rating, Kochia [12, 26]: 40 | Plant response rating, Kochia [12, 27]: 90 | Plant response rating, Lambsquarters [13, 23]: 100 | Plant response rating, Lambsquarters [13, 25]: 45 | Plant response rating, Lambsquarters [13, 26]: 50 | Plant response rating, Lambsquarters [13, 27]: 100 | Plant response rating, Morningglory [14, 23]: 0 | Plant response rating, Morningglory [14, 25]: 0 | Plant response rating, Morningglory [14, 26]: 0 | Plant response rating, Morningglory [14, 27]: 0 | Plant response rating, Pigweed [15, 23]: 0 | Plant response rating, Pigweed [15, 25]: 0 | Plant response rating, Pigweed [15, 26]: 0 | Plant response rating, Pigweed [15, 27]: 50 | Plant response rating, Soybean [16, 23]: 0 | Plant response rating, Soybean [16, 25]: 0 | Plant response rating, Soybean [16, 26]: 0 | Plant response rating, Soybean [16, 27]: 0 | Plant response rating, Velvetleaf [17, 23]: 0 | Plant response rating, Velvetleaf [17, 25]: 0 | Plant response rating, Velvetleaf [17, 26]: 0 | Plant response rating, Velvetleaf [17, 27]: 0 | Plant response rating, Cupgrass, Woolly [18, 23]: 50 | Plant response rating, Cupgrass, Woolly [18, 25]: 0 | Plant response rating, Cupgrass, Woolly [18, 26]: 30 | Plant response rating, Cupgrass, Woolly [18, 27]: 60 | Plant response rating, Nutsedge [19, 23]: 0 | Plant response rating, Nutsedge [19, 25]: 0 | Plant response rating, Nutsedge [19, 26]: 0 | Plant response rating, Nutsedge [19, 27]: 0 | Barnyardgrass plant response rating ([20]; Rate 250 g/ha): 0 | Barnyardgrass plant response rating ([20]; Rate 500 g/ha): 0 | Plant response rating, Barnyardgrass ([20]; Rate 62 g/ha): 0 | Plant response rating, Barnyardgrass ([20]; Rate 125 g/ha): 0 | Ducksalad plant response rating ([21]; Rate 250 g/ha): 40 | Ducksalad plant response rating ([21]; Rate 500 g/ha): 80 | Plant response rating, Ducksalad ([21]; Rate 62 g/ha): 0 | Plant response rating, Ducksalad ([21]; Rate 125 g/ha): 20 | Flatsedge plant response rating ([22]; Rate 250 g/ha): 30 | Flatsedge plant response rating ([22]; Rate 500 g/ha): 90 | Plant response rating, Flatsedge ([22]; Rate 62 g/ha): 0 | Plant response rating, Flatsedge ([22]; Rate 125 g/ha): 20

CCC(C)Oc1cccc(N2CCC(n3ccc(C(C)(C)C)n3)C2=O)c1 (stereo not shown) [Compound 127]
Plant response rating, Nightshade ([1]; Rate 62 g/ha, scale 0 to 100): 0 | Plant response rating, Nightshade [1, 23]: 0 | Plant response rating, Nightshade [1, 24]: 0 | Plant response rating, Sunflower [2]: 0 | Plant response rating, Surinam grass [3, 23]: 0 | Plant response rating, Surinam grass [3, 26]: 0 | Plant response rating (0 to 100), Surinam grass [3, 28]: 100 | Plant response rating, Surinam grass [3, 27]: 20 | Plant response rating, Bermudagrass [4, 23]: 100 | Plant response rating, Bermudagrass [4, 26]: 90 | Plant response rating (0 to 100 where 0 is no effect and 100 is complete control), Bermudagrass [4, 28]: 100 | Plant response rating, Bermudagrass [4, 27]: 100 | Plant response rating, Cocklebur [5, 23]: 0 | Plant response rating, Cocklebur [5, 26]: 0 | Plant response rating (0 to 100), Cocklebur [5, 28]: 20 | Plant response rating, Cocklebur [5, 27]: 0 | Plant response rating, Ragweed, Common [6, 23]: 0 | Plant response rating, Ragweed, Common [6, 26]: 0 | Plant response rating (0 to 100), Ragweed, Common [6, 28]: 10 | Plant response rating, Ragweed, Common [6, 27]: 10 | Plant response rating, Corn [7, 23]: 0 | Plant response rating, Corn [7, 26]: 0 | Plant response rating (0 to 100), Corn [7, 28]: 30 | Plant response rating, Corn [7, 27]: 30 | Plant response rating, Crabgrass [8, 23]: 70 | Plant response rating, Crabgrass [8, 26]: 50 | Plant response rating (0 to 100), Crabgrass [8, 28]: 100 | Plant response rating, Crabgrass [8, 27]: 100 | Plant response rating, Foxtail, Giant [9, 23]: 0 | Plant response rating, Foxtail, Giant [9, 26]: 0 | Plant response rating (0 to 100), Foxtail, Giant [9, 28]: 100 | Plant response rating, Foxtail, Giant [9, 27]: 100 | Plant response rating, Goosegrass [10, 23]: 30 | Plant response rating, Goosegrass [10, 26]: 10 | Plant response rating (0 to 100), Goosegrass [10, 28]: 100 | Plant response rating, Goosegrass [10, 27]: 100 | Plant response rating, Johnsongrass [11, 23]: 0 | Plant response rating, Johnsongrass [11, 26]: 0 | Plant response rating (0 to 100), Johnsongrass [11, 28]: 0 | Plant response rating, Johnsongrass [11, 27]: 0 | Plant response rating, Kochia [12, 23]: 0 | Plant response rating, Kochia [12, 26]: 0 | Plant response rating (0 to 100), Kochia [12, 28]: 0 | Plant response rating, Kochia [12, 27]: 0 | Plant response rating, Lambsquarters [13, 23]: 80 | Plant response rating, Lambsquarters [13, 26]: 20 | Plant response rating (0 to 100), Lambsquarters [13, 28]: 100 | Plant response rating, Lambsquarters [13, 27]: 100 | Plant response rating, Morningglory [14, 23]: 0 | Plant response rating, Morningglory [14, 26]: 0 | Plant response rating (0 to 100), Morningglory [14, 28]: 20 | Plant response rating, Morningglory [14, 27]: 0 | Plant response rating, Pigweed [15, 23]: 0 | Plant response rating, Pigweed [15, 26]: 0 | Plant response rating (0 to 100), Pigweed [15, 28]: 0 | Plant response rating, Pigweed [15, 27]: 0 | Plant response rating, Soybean [16, 23]: 0 | Plant response rating, Soybean [16, 26]: 0 | Plant response rating (0 to 100), Soybean [16, 28]: 0 | Plant response rating, Soybean [16, 27]: 0 | Plant response rating, Velvetleaf [17, 23]: 0 | Plant response rating, Velvetleaf [17, 26]: 0 | Plant response rating (0 to 100), Velvetleaf [17, 28]: 30 | Plant response rating, Velvetleaf [17, 27]: 10 | Plant response rating, Cupgrass, Woolly [18, 23]: 50 | Plant response rating, Cupgrass, Woolly [18, 26]: 0 | Plant response rating (0 to 100), Cupgrass, Woolly [18, 28]: 100 | Plant response rating, Cupgrass, Woolly [18, 27]: 90 | Plant response rating, Nutsedge [19, 23]: 0 | Plant response rating, Nutsedge [19, 26]: 0 | Plant response rating (0 to 100), Nutsedge [19, 28]: 0 | Plant response rating, Nutsedge [19, 27]: 0 | Barnyardgrass plant response rating ([20]; Rate 250 g/ha): 20 | Barnyardgrass plant response rating ([20]; Rate 500 g/ha): 50 | Plant response rating, Barnyardgrass ([20]; Rate 62 g/ha): 0 | Plant response rating, Barnyardgrass ([20]; Rate 125 g/ha): 0 | Ducksalad plant response rating ([21]; Rate 250 g/ha): 50 | Ducksalad plant response rating ([21]; Rate 500 g/ha): 80 | Plant response rating, Ducksalad ([21]; Rate 62 g/ha): 0 | Plant response rating, Ducksalad ([21]; Rate 125 g/ha): 0 | Flatsedge plant response rating ([22]; Rate 250 g/ha): 80 | Flatsedge plant response rating ([22]; Rate 500 g/ha): 90 | Plant response rating, Flatsedge ([22]; Rate 62 g/ha): 0 | Plant response rating, Flatsedge ([22]; Rate 125 g/ha): 0
